Values of other authors as cited in patent US5183829A, “Oral liquid compositions of non-steroidal anti-inflammatory drugs” (priority 1991, dated 1993).

Conditions: enteric coated tablet vs aqueous solution

In the case of `O=C(O)Cc1ccccc1Nc1c(Cl)cccc1Cl` [sodium diclofenac], the oral bioavailability is given as “more bioavailable orally from an enteric coated tablet than from an aqueous solution”.
